# Assay results taken from publication PMC9469500, “Targeting an Initiator Allergen Provides Durable and Expansive Protection against House Dust Mite Allergy” (ACS Pharmacology & Translational Science, 2022).
# Counter-ions that a name gives are not always drawn.
# How the values were obtained:
# thermodynamic solubility = assay type: physicochemical; conditions: thermodynamic from solid
# [1] = system: rat alveolar macrophage line NR8383; test: Cellular stability in macrophages; assay type: in vitro ADME; conditions: 100 nM compound
# Method: (§1) Cellular Stability of Compounds
# (§2) The cellular stability of compounds in vitro was tested using rat airway epithelial cell line L2 and rat alveolar macrophage line NR8383 (ATCC©CRL-2192™). Assays were performed in replicate and the data expressed as mean ± s.e. mean. L2 cells were cultured to confluence in T25 flasks or 24 -well plates using Kaighn’s modification of Ham’s F12 medium (F12K). Cells were prepared for assay by washing 3 times with serum-free F12K. NR8383 Airway macrophages were grown in suspension culture in F12K, collected by centrifugation, washed in serum-free medium and aliquoted into test plates (1.4 x 10^6 cells/well). Both cell lines were treated with ADI compounds (100 nM) in serum -free F12K in a 5% CO 2 environment at 37 °C. Samples were removed for quantitative analysis by LC -MS-MS using appropriate multiple reaction monitoring transitions for each analyte. […]
# (§3) n-Octanol (0.7 mL), pre -saturated with 10 mM PBS, pH7.4, was added to test compound (~1 mg) in a 2 mL HPLC vial followed by PBS (0. 7 mL), which had been pre -saturated with n -octanol. The mixture was shaken for 90 min before centrifugation for 10 min at 4,000 rpm. The upper organic layer (0.2 mL) and the aqueous layer (0.5 mL) were removed for analysis by LC-MS. Peak identity was confirmed by mass spectrometry and concentration assessed spectrophotometrically using a diode array detector. The log
# human hepatocytes = test: hepatocyte stability (human); assay type: in vitro ADME
# Pharmacokinetics in rats = conditions: rat p.o.
# Method: Soluble formulations were developed and verified by high performance liquid chromatography (HPLC)
# 1 mL/kg) and p.o. (5 mg/kg, 5 mL/kg) in non-fasted Sprague-Dawley rats (male, 200-300 g, 10-16 weeks
# of age, groups of three animals per route per compound). Timed blood samples were taken after dosing
# and plasma prepared for LC-MS-MS quantification of the test substance after inclusion of an internal
# standard. A non -compartmental model in WinNonlin software was used to calculate pharmacokinetic
# rat hepatocytes = test: hepatocyte stability (rat); assay type: in vitro ADME
# unsensitized BN rats = test: HDM extract challenge in unsensitized (naive) BN rats, duration of protection; assay type: in vivo
# plasma stability (human) = assay type: in vitro ADME
# [2] = system: rats sensitized to the HDM allergen extract; test: HDM extract challenge in rats sensitized to the HDM allergen extract (BAL cells and mediators); assay type: in vivo, BN rats; conditions: single i.t. aerosol dose 2 h before (15 μg/kg compound 1, 46 μg/kg compound 2), BAL 48 h
# Description: Control animals received saline vehicle treatment.
# [3] = Plasma protein binding (human); assay type: in vitro ADME
# Method: Plasma Protein Binding Assay
# Plasma protein binding (PPB) was determined using Rapid Equilibrium Dialysis chambers with 8 kDa cut-off inserts (Fisher Scientific UK Ltd, Leicestershire, UK). Rat (Sprague Dawley strain) plasma EDTA K2 (pooled, mixed sex, SeraLab, West Sussex, UK) was centrifuged (13,000 x g, 10 min) to remove precipitates before addition of compounds (initial concentration 5 µM). Concentrations were determined by liquid chromatography-tandem mass spectrometry (LC-MS-MS) (AB Sciex 3200 QTrap) after 4 h incubation at 37 °C with binding being calculated from the concentration of compound in each chamber. Assays were performed in replicate and the data expressed as mean ± s.e.
# Cellular Stability of Compounds […]
# Kaighn’s modification of Ham’s F12 medium (F12K). Cells were prepared for assay by washing 3 times with serum-free F12K. NR8383 Airway macrophages were grown in suspension culture in F12K, collected by centrifugation, washed in serum-free medium and aliquoted into test plates (1.4 x 10^6 cells/well). Both cell lines were treated with ADI compounds (100 nM) in serum -free F12K in a 5% CO 2 environment at 37 […]
# n-Octanol (0.7 mL), pre -saturated with 10 mM PBS, pH7.4, was added to test compound (~1 mg) in a 2 mL HPLC vial followed by PBS (0. 7 mL), which had been pre -saturated with n -octanol. […]
# plasma stability (rat) = assay type: in vitro ADME
# [4] = Plasma protein binding (rat); assay type: in vitro ADME
# Method: Plasma protein binding (PPB) was determined using Rapid Equilibrium Dialysis chambers with 8 kDa cut-off inserts (Fisher Scientific UK Ltd, Leicestershire, UK). Rat (Sprague Dawley strain) plasma EDTA K2 (pooled, mixed sex, SeraLab, West Sussex, UK) was centrifuged (13,000 x g, 10 min) to remove precipitates before addition of compounds (initial concentration 5 M). Concentrations were determined by liquid chromatography-tandem mass spectrometry (LC-MS-MS) (AB Sciex 3200 QTrap) after 4 h incubation at 37 °C with binding being calculated from the concentration of compound in each chamber. Assays were performed in replicate and the data expressed as mean ± s.e.
# [5] = system: rat airway epithelial cell line L2; test: Cellular stability in L2 cells; assay type: in vitro ADME; conditions: 100 nM compound
# Method: as §1, §2, §3
# [6] = single i.t. dose (15 μg/kg compound 1, 46 μg/kg compound 2), BAL 48 h
smiles,measurement,setting,value
"CC(C)[C@H](NC(=O)[C@H](C)NC(=O)[C@@H](NC(=O)C1CC[N+](C)(C)CC1)C(C)(C)C)C(=O)C(=O)NCc1ccccc1 [Compound 2, 4-{(S)-1-[(S)-1-((S)-1-benzylaminooxalyl-2-methyl-propylcarbamoyl)-ethylcarbamoyl]-2,2-dimethyl-propylcarbamoyl}-1,1-dimethyl-piperidinium formate]",solubility thermodynamic,thermodynamic solubility,> 1600 µM
same,cell stability,[1],100;100
same,hepatocyte half-life,human hepatocytes,∞ (rat); ∞ (human)
same,half-life,"Pharmacokinetics in rats; male, Sprague-Dawley, rat, plasma, po, 5 mg/kg, half-life, fed",18 min
same,volume of distribution,Pharmacokinetics in rats,0.3 L/kg
same,clearance,Pharmacokinetics in rats; fasted,19 (fasted) mL/min/kg
same,hepatocyte half-life,rat hepatocytes,∞ (rat); ∞ (human)
same,neutrophil response,"unsensitized BN rats; BAL performed 24 h after HDM extract challenge, dosed 2 h prior",clear inhibition
same,inhibition of BAL monocytes/macrophages (significance),"unsensitized BN rats; dosing 120 min prior to challenge, 46 μg/kg i.t., BAL 48 h",significant
same,"performance in vivo (maximum inhibition of the eosinophil response, Figure 5A)","unsensitized BN rats; focused library, durability of inhibition studies",performed well
same,effects on BAL neutrophils,"unsensitized BN rats; intervening pretreatment intervals, BAL 48 h",insignificant
same,effect on BAL neutrophils (significance),"unsensitized BN rats; pretreatment 60 min, 46 μg/kg i.t., BAL 48 h",significant
same,effect on BAL neutrophils (significance),"unsensitized BN rats; pretreatment 360 min, 46 μg/kg i.t., BAL 48 h",significant
same,effects on BAL neutrophils,"unsensitized BN rats; short or long pretreatment intervals, BAL 48 h",inhibitory
same,effect on BAL monocytes/macrophages,"unsensitized BN rats; shorter pretreatment times, BAL 48 h",modest inhibition
same,effect on eosinophils with 6–8 h separation of dose and challenge,unsensitized BN rats; [6],substantial inhibition
same,time of administration before challenge giving peak effects on eosinophils,unsensitized BN rats; [6],2 h
same,remaining at 2 h,plasma stability (human),100%
same,changes in BAL cells after HDM challenge,[2]; HDM 10 (10 μg Der p 1) i.t. aerosol,attenuated
same,BAL eosinophils after HDM challenge,[2]; HDM 10,eosinophil suppression
same,BAL monocytes/macrophages after HDM challenge,[2]; HDM 10,No effects
same,BAL neutrophil responses after HDM challenge,[2]; HDM 10,not significant
same,"fraction unbound at 4 h, 5 µM",[3],0.37
same,remaining at 2 h,plasma stability (rat),100%
same,plasma protein binding,[4],61%
same,cell stability,[5],100;100
